Data as given in article PMC10726920 (Cancer Medicine, 2023).

Columns and labels:
[1] = system: patients with advanced solid malignancies; details: original drug formulation, daily dosing; cited from earlier work
[2] = system: patients with advanced multiple myeloma; set-up: method as in PMID 26800393; details: orally daily; cited from earlier work
[3] = system: phospho-4EBP1 (direct mTORC1 substrate) in Jurkat ALL cell line; test: Immunoblotting of Jurkat cells treated 24 h with sapanisertib; format: cell-based, human
Text: FIGURE 2 Effect of MLN0128 concentrations on mTOR‐associated phosphorylation in vitro, ex vivo, and in the context of the present trial. […] (C) Samples harvested from the indicated patients prior to treatment (lanes 1, 4, 6, 8, and 10), on Day 8 prior to therapy (lanes 2, 5, 7, 9, and 11), or at the time of removal from study after 6 weeks (lane 3) were subjected to SDS‐PAGE and blotting for the indicated antigens. Jurkat cells (lane 12) were included in the blot because they were known to be positive for all analytes.[29] The housekeeping protein nucleolin (NCL) served as a loading control.
After samples were dialyzed sequentially into 4 M urea and 0.1% (w/v) SDS, lyophilized and reconstituted in SDS-sample buffer consisting of 4 M urea, 2% (w/v) SDS, […] (pH 6.8 at 4 °C), 10 mM EDTA, and 1% (w/v/) 2-mercaptoethanol, aliquots containing […] of total cellular protein were subjected to SDS-PAGE on gels containing 5-20% polyacrylamide gradients, transferred to nitrocellulose, and probed with antibodies as previously described ^34, 35. […]

SMILES: CC(C)n1nc(-c2ccc3oc(N)nc3c2)c2c(N)ncnc21 [sapanisertib]
- maximum tolerated dose (MTD) [1]: 6 mg/day
- MTD [2]: 6 mg
- concentration diminishing phosphorylation of 4EBP1 without change in total 4EBP1 [3]: 62.5 to 200 nM
